Reference: patent US11958815B1, “N′-(2-(5-phenyl-1,3,4-oxadiazol-2-ylthio)acetoxy)-2-naphthimidamide as antimicrobial compound” (KING FAISAL UNIVERSITY, priority 2023, dated 2024)

How the values were obtained:
Aspergillus flavus = experiment: Agar plate disc-diffusion, antifungal activity by inhibition zone; settings: Sabouraud's dextrose agar, 37° C., 72 hours, DMSO zone subtracted
Staphylococcus aureus = experiment: Agar plate disc-diffusion, antibacterial activity by inhibition zone; settings: nutrient agar, 37° C., 48 hours, DMSO zone subtracted
Escherichia coli = experiment: as above; settings: nutrient agar, 37° C., 48 hours, DMSO zone subtracted
[1] = tested on: Chrysosporium keratinophilum; experiment: Agar plate disc-diffusion, antifungal activity by inhibition zone; settings: Sabouraud's dextrose agar, 37° C., 72 hours, DMSO zone subtracted
Bacillus cereus = experiment: Agar plate disc-diffusion, antibacterial activity by inhibition zone; settings: nutrient agar, 37° C., 48 hours, DMSO zone subtracted
Pseudomonas aeruginosa = experiment: as above; settings: nutrient agar, 37° C., 48 hours, DMSO zone subtracted
[2] = A = concentration of comp. = 10,000 μL
[3] = B = concentration of comp. = 30.000 μL
[4] = C = concentration of comp. = 50,000 μL

With `N/C(=N\OC(=O)CSc1nnc(-c2ccccc2)o1)c1ccc2ccccc2c1` [Comp 3, N′-(2-(5-phenyl-1,3,4-oxadiazol-2-ylthio)acetoxy)-2-naphthimidamide] the “inhibition zone, Aspergillus flavus” value (Aspergillus flavus; [2]) was 26 mm, the “inhibition zone, Aspergillus flavus” value (Aspergillus flavus; [3]) was 29 mm and the “inhibition zone, Aspergillus flavus” value (Aspergillus flavus; [4]) was 39 mm. The “inhibition zone, Staphylococcus aureus” value (Staphylococcus aureus; [2]) was 25 mm, the “inhibition zone, Staphylococcus aureus” value (Staphylococcus aureus; [3]) was 31 mm and the “inhibition zone, Staphylococcus aureus” value (Staphylococcus aureus; [4]) was 40 mm. The “inhibition zone, Escherichia coli” value (Escherichia coli; [2]) was 31 mm, the “inhibition zone, Escherichia coli” value (Escherichia coli; [3]) was 39 mm and the “inhibition zone, Escherichia coli” value (Escherichia coli; [4]) was 48 mm. The “inhibition zone, Chrysosporium keratinophilum” value [1, 2] was 31 mm, the “inhibition zone, Chrysosporium keratinophilum” value [1, 3] was 39 mm and the “inhibition zone, Chrysosporium keratinophilum” value [1, 4] was 45 mm. The “inhibition zone, Bacillus Cereus” value (Bacillus cereus; [2]) was 28 mm, the “inhibition zone, Bacillus Cereus” value (Bacillus cereus; [3]) was 32 mm and the “inhibition zone, Bacillus Cereus” value (Bacillus cereus; [4]) was 40 mm. For the same compound, the “inhibition zone, Pseudomonas aeruginosa” value (Pseudomonas aeruginosa; [2]) was 27 mm, the “inhibition zone, Pseudomonas aeruginosa” value (Pseudomonas aeruginosa; [3]) was 34 mm and the “inhibition zone, Pseudomonas aeruginosa” value (Pseudomonas aeruginosa; [4]) was 40 mm.
